Measured values taken from publication PMC6792352, “Limited Chemical Structural Diversity Found to Modulate Thyroid Hormone Receptor in the Tox21 Chemical Library” (Environmental Health Perspectives, 2019).
Counter-ions that a name gives are not always drawn. Like-named read-outs stand apart in the source and are kept apart here.

Tested on: GH3-TRE-Luc cell line
Conditions: read-out: AC50 (uM) modified / 1000, viability, 1 nM T3 present, 24 h

Question: With C[C@@H]1C[C@@H]([C@H](O)CC2CC(=O)NC(=O)C2)C(=O)[C@@H](C)C1 [Cycloheximide] as the compound, how does the CC50 (Tox21_110001=Tox21_113580) read?
Answer: 0.256 µM

Question: And the CC50 (Tox21_110001=Tox21_201158)?
Answer: 0.0922 µM

Question: And the CC50 (Tox21_110001=Tox21_303652)?
Answer: 1.49 µM

Question: CCc1nc(N)nc(N)c1-c1ccc(Cl)cc1 [Pyrimethamine] was tested. Which CC50 (Tox21_110001=Tox21_201834) did it give?
Answer: > 90 µM

Question: And the CC50 (Tox21_110001=Tox21_300129)?
Answer: 42.7 µM

Question: Which results are given for CCc1nn(CCCN2CCN(c3cccc(Cl)c3)CC2)c(=O)n1CCOc1ccccc1 [Nefazodone hydrochloride]?
Answer: CC50 (Tox21_110001=Tox21_111735): 9.43 µM; CC50 (Tox21_110001=Tox21_113574): 23.6 µM

Question: Which results are given for C=C(CC)C(=O)c1ccc(OCC(=O)O)c(Cl)c1Cl [Ethacrynic acid]?
Answer: CC50 (Tox21_110001=Tox21_110335): 27 µM; CC50 (Tox21_110001=Tox21_201102): 65.9 µM

Question: CN(C)CCCN1c2ccccc2Sc2ccc(Cl)cc21 [Chlorpromazine] was tested. Which CC50 (Tox21_110001=Tox21_110120) did it give?
Answer: 8.03 µM

Question: For O=C1OC2(c3ccccc31)c1cc(Br)c(O)c(Br)c1Oc1c2cc(Br)c(O)c1Br [Eosin], which CC50 (Tox21_110001=Tox21_112323) is on record?
Answer: 9.05 µM

Question: What about the CC50 (Tox21_110001=Tox21_302152) of the same compound?
Answer: 8.28 µM

Question: CCCCCCCCCCCCn1cc[n+](C)c1 [1-Dodecyl-3-methylimidazolium tetrafluoroborate] was tested. Which CC50 (Tox21_110001=Tox21_202629) did it give?
Answer: 3.46 µM

Question: For CCCCCCCCCCCCCCCCn1cc[n+](C)c1 [1-Hexadecyl-3-methylimidazolium chloride], which CC50 (Tox21_110001=Tox21_200600) is on record?
Answer: 21.4 µM

Question: Which CC50 (Tox21_110001=Tox21_200568) does the source give for Cc1c(C)c2c(c(C)c1OC(=O)CCC(=O)O)CC[C@@](C)(CCC[C@H](C)CCC[C@H](C)CCCC(C)C)O2 [d-alpha-Tocopheryl succinate] here?
Answer: 20 µM

Question: With CCCCC(CC)COC(=O)CC(C(=O)OCC(CC)CCCC)S(=O)(=O)O (stereo not drawn) [Docusate sodium] as the compound, how does the CC50 (Tox21_110001=Tox21_112087) read?
Answer: 34.4 µM

Question: And the CC50 (Tox21_110001=Tox21_113469)?
Answer: 18.8 µM

Question: What about the CC50 (Tox21_110001=Tox21_201342) of the same compound?
Answer: 64.9 µM

Question: And the CC50 (Tox21_110001=Tox21_300496)?
Answer: 57.2 µM

Question: With Nc1ccc(Nc2ccccc2)cc1 [N-Phenyl-1,4-benzenediamine hydrochloride] as the compound, how does the CC50 (Tox21_110001=Tox21_200117) read?
Answer: 57.3 µM

Question: For CCCCCCCCCCCCCC[P+](CCCCCC)(CCCCCC)CCCCCC [Trihexyltetradecylphosphonium dicyanamide], which CC50 (Tox21_110001=Tox21_202613) is on record?
Answer: 2.76 µM

Question: COC(=O)Nc1nc2ccc(Sc3ccccc3)cc2[nH]1 [Fenbendazole] was tested. Which CC50 (Tox21_110001=Tox21_110649) did it give?
Answer: 0.23 µM

Question: And the CC50 (Tox21_110001=Tox21_301828)?
Answer: 1.53 µM

Question: For CCCCCCCCCCCCCC[N+](C)(C)C [Tetradonium bromide], which CC50 (Tox21_110001=Tox21_112327) is on record?
Answer: 5.04 µM

Question: What about the CC50 (Tox21_110001=Tox21_302067) of the same compound?
Answer: 8.21 µM

Question: For Oc1cccc2cccnc12 [8-Quinolinol salicylic acid (1:1)], which CC50 (Tox21_110001=Tox21_110005) is on record?
Answer: 10.3 µM

Question: With CC[C@H]1CN2CCc3cc(OC)c(OC)cc3[C@@H]2C[C@@H]1C[C@H]1NCCc2cc(OC)c(OC)cc21 [Emetine] as the compound, how does the CC50 (Tox21_110001=Tox21_110901) read?
Answer: 0.0872 µM

Question: Which CC50 (Tox21_110001=Tox21_111203) does the source give for Nc1ccn([C@@H]2O[C@H](CO)[C@@H](O)[C@@H]2O)c(=O)n1 [Cytarabine] here?
Answer: 0.708 µM

Question: And the CC50 (Tox21_110001=Tox21_301971)?
Answer: 0.237 µM

Question: Which CC50 (Tox21_110001=Tox21_200750) does the source give for CCCCCCCCCCCCCC[P+](CCCCCC)(CCCCCC)CCCCCC [Trihexyltetradecylphosphonium hexafluorophosphate] here?
Answer: 5.33 µM

Question: How did the CC50 (Tox21_110001=Tox21_202416) turn out when CN(C)c1ccc(C(=O)c2ccc(N(C)C)cc2)cc1 [Michler's ketone] was run?
Answer: 2.74 µM

Question: Which CC50 (Tox21_110001=Tox21_200943) does the source give for CC/C(=C(\c1ccc(O)cc1)c1ccc(OCCN(C)C)cc1)c1ccccc1 [(Z)-4-Hydroxytamoxifen] here?
Answer: 5.77 µM

Question: CCCCCCCCCCCCCCCC[N+](C)(C)C [Hexadecyltrimethylammonium bromide] was tested. Which CC50 (Tox21_110001=Tox21_112096) did it give?
Answer: 9.07 µM

Question: What about the CC50 (Tox21_110001=Tox21_300853) of the same compound?
Answer: 11.7 µM

Question: c1cc(C(c2ccc(OCC3CO3)cc2)C(c2ccc(OCC3CO3)cc2)c2ccc(OCC3CO3)cc2)ccc1OCC1CO1 (stereo not drawn) [1,1,2,2-(4,4',4'',4'''-Tetraglycidyloxyphenyl)ethane] was tested. Which CC50 (Tox21_110001=Tox21_202150) did it give?
Answer: 25.2 µM

Question: How did the CC50 (Tox21_110001=Tox21_201243) turn out when CC/C(=C(\c1ccccc1)c1ccc(OCCN(C)C)cc1)c1ccccc1 [Tamoxifen] was run?
Answer: 13.9 µM

Question: What about the CC50 (Tox21_110001=Tox21_300539) of the same compound?
Answer: 8.55 µM

Question: Which CC50 (Tox21_110001=Tox21_110967) does the source give for CN1CCc2cccc3c2[C@H]1Cc1ccc(O)c(O)c1-3 [Apomorphine] here?
Answer: 27.3 µM

Question: What does the source list for O=C1CN(/N=C/c2ccc(-c3ccc([N+](=O)[O-])cc3)o2)C(O)=N1 [Dantrolene sodium]?
Answer: CC50 (Tox21_110001=Tox21_112013): 11.2 µM; CC50 (Tox21_110001=Tox21_301997): 48.2 µM

Question: What does the source list for Cc1c(O)cccc1C(=O)N[C@@H](CSc1ccccc1)[C@H](O)CN1C[C@H]2CCCC[C@H]2C[C@H]1C(=O)NC(C)(C)C [Nelfinavir mesylate]?
Answer: CC50 (Tox21_110001=Tox21_111021): 3.68 µM; CC50 (Tox21_110001=Tox21_200921): 1.83 µM

Question: With Cc1cc(C(C)(C)C)c(O)c(C(C)(C)C)c1 [Butylated hydroxytoluene] as the compound, how does the CC50 (Tox21_110001=Tox21_113537) read?
Answer: 42.9 µM

Question: And the CC50 (Tox21_110001=Tox21_201093)?
Answer: 76.4 µM

Question: How did the CC50 (Tox21_110001=Tox21_110162) turn out when O=C(CCCN1CCC(O)(c2ccc(Cl)cc2)CC1)c1ccc(F)cc1 [Haloperidol] was run?
Answer: 20.6 µM

Question: And the CC50 (Tox21_110001=Tox21_300475)?
Answer: 52.1 µM

Question: Which CC50 (Tox21_110001=Tox21_302812) does the source give for CCN(CC)C(=S)S [Sodium diethyldithiocarbamate trihydrate] here?
Answer: 8.88 µM

Question: Which CC50 (Tox21_110001=Tox21_202922) does the source give for COc1cc([C@@H]2c3cc4c(cc3[C@H](O)[C@H]3COC(=O)[C@H]23)OCO4)cc(OC)c1OC [Podofilox] here?
Answer: 0.0227 µM

Question: Which results are given for O=c1c(O)c(-c2ccc(O)c(O)c2)oc2cc(O)cc(O)c12 [Quercetin]?
Answer: CC50 (Tox21_110001=Tox21_202308): 40.5 µM; CC50 (Tox21_110001=Tox21_300285): 77.2 µM

Question: How did the CC50 (Tox21_110001=Tox21_201685) turn out when Cn1c(=O)c2c(ncn2C)n(C)c1=O [Caffeine] was run?
Answer: 41.2 µM
